The target of this assay is T1, PRPF40A N-ext-WW12 (residues 56–236) (Homo sapiens, UniProt O75400).
T1 construct: WW12long 141–248, and N-ext-WW12 56–236; 6xHis-TEV site (N, cleaved yes); made in house; host or cells: Escherichia coli BL21(DE3)
T1 sequence (O75400 56-236): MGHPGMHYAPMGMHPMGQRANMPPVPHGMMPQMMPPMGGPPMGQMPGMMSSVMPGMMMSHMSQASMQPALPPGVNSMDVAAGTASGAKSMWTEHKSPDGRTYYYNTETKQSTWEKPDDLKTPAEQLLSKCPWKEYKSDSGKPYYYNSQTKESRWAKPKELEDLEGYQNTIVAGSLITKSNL
As to the kind of experiment: ITC of N-terminally extended WW12 with SF1 peptides. The assay is classed as binding. Particulars: for Kd: ITC. An excerpt: PRPF40A isoform 1 sequences (N-ter 1–310, WW12short 141–223, WW12 141–236, WW12long 141–248, and N-ext-WW12 56–236) were amplified from a purchased DNA fragment (IDT) and cloned using NcoI and KpnI restriction sites into a pETM11 vector encoding 6xHis and TEV cleavage site as a N-terminal tag. SF1 (Pro A 410–468, Pro B 468–539, Pro C 539–594, Pro D 594–639, Pro BC 468–594, Pro CD 539–639, Pro BCD 468–639 and Pro ABCD 410–639) and SF3A1 (Middle Pro 364–413 and C-ter Pro 552–683) constructs were prepared in a similar manner using a pET24 vector with a 6xHis, GB1 and TEV cleavage site as N-terminal fusion cassette. 16-mer SF1 constructs (Table 1) and polyproline peptides (P6, P8, P10, P13, P16, P19, P22, P25, and P29) were cloned in the same pET24 vector with GB1 tag by direct ligation of purchased oligonucleotides (Eurofins). All peptide sequences contained N and C-terminal common residues to avoid boundary effects on binding: TEVsite-GAMSGS-peptide-SGSN. Mutants of PRPF40A WW12 and N-ext-WW12 constructs were prepared by site-directed mutagenesis. The truncated version of PRPF40A WW12 (141-217) was a gift from Dr. María Macías (IRB, Spain). All used oligonucleotides were purchased from Eurofins Genomics and are shown in Supplementary Table 6.
Resuspended cell pellets in 20 mM Tris pH 8.0, 500 mM NaCl, 10 mM imidazole, 0.5 mM TCEP, and protease inhibitors mix (SERVA) were lysed by cell disruption in a French press. Clear lysates, after centrifugation (at 18,000 g) and filtering, were loaded into Ni-NTA resin. The resin was then washed with 20 mM imidazole containing buffer, and the desired protein was eluted with 500 mM imidazole. PRPF40A constructs were then subjected to TEV protease treatment (homemade at a final concentration of ≈50 μg/ml), dialyzed overnight at 4 °C against an imidazole-free buffer, and then loaded again to Ni-NTA resin; desired digested proteins were obtained in the flow-through and wash fractions while uncleaved protein, TEV protease, and impurities remained bound to the resin. Cleaved PRPF40A proteins and GB1-tagged SF1, SF3A1, and polyproline constructs were further purified by size-exclusion chromatography on a HiLoad 16/60 Superdex 75 column (GE Healthcare) equilibrated with 20 mM sodium phosphate, pH 6.5, 100 mM NaCl and 1 mM DTT buffer. For the purification of PRPF40A WW12 in complex with SF1 peptide, cell pellets of recombinant expression for both proteins were mixed and processed together following the Ni-NTA—TEV digestion—reverse Ni-NTA—SEC-75 protocol; where the complex remained bound in a 1:1 stoichiometry throughout the whole purification (corroborated by NMR). Molecular weight of each sample was confirmed by mass spectrometry, purity was checked by PAGE-SDS, and protein concentrations were determined from the aromatic contribution to the UV absorbance spectra at 280 nm.
Experiments were conducted on a MicroCAl PEAQ-ITC (Malvern Instruments, UK) at 25 °C in 20 mM sodium phosphate pH 6.5 and 100 mM NaCl. PRPF40A was titrated into N-terminal GB1 tagged SF1 or polyproline constructs and vice versa with similar results. Protein concentrations in the cell were around 20–40 μM, while in the syringe ranged between 200 and 500 μM. Experiments were performed at least in duplicate with injections of 1.5 μL (0.4 μL for first point) separated by 150 s delays to recover thermal power baseline and continuous stirring in the cell (750 rpm) for correct mixing. The reference cell was filled with water in all experiments. Data were processed by removing the blank experiment (using digested GB1 fusion protein) and adjusted to one-site binding model with Malvern PEAQ-ITC Analysis software (Malvern Instruments, UK).

Like-named read-outs stand apart in the source and are kept apart here. A value given as a limit tells only on which side of the number the result lay.

What is called Kd is the concentration at which binding is half-saturated.

PPLPPGAPPPPPPPPP [SF1WWbs]: where the note is “ITC as E7”, the “N (sites)” value worked out at 0.88 ± 0.03 sites. The “DH” value (ITC binding enthalpy, as E7) was -15.8 ± 0.884 kcal/mol. Also, the dissociation constant Kd is 8.71 ± 0.88 µM (25 °C, 20 mM sodium phosphate pH 6.5, 100 mM NaCl, GB1-tagged SF1 16-mer, N-terminally extended WW12, at least duplicates, listed as 575 PPLPPGAPPPPPPPPP 590, read-out: Kd); below 10 µM (25 °C, 20 mM sodium phosphate pH 6.5, 100 mM NaCl, GB1-tagged SF1 16-mer, N-terminally extended WW12, at least duplicates, read-out: Kd); 9.19 µM (SF1 peptides, individual value 1 (replicate 1), read-out: Kd Values with Nter Ext WW12, individual value); 8.22 µM (SF1 peptides, individual value 2 (replicate 2), read-out: Kd Values with Nter Ext WW12, individual value).
